# Assays:
# Type in all cases: in vivo
# ‘Magenta’ Impatiens = experiment: Spray with 1-MCP solutions with Silwet L-77, ethylene challenge (Example 5); conditions: for Wilt and/or Abscission (%): surf. 0.25 ml/L
# Method: (§1) Spray applications were made using (unless otherwise noted) AFxRD-038 powder containing 3.8% active ingredient, i.e. 1-MCP, and also containing dextrose, alpha-cyclodextrin, and amino acid salt. Rates listed are for active ingredient e.g. 5 mg active ingredient per liter. Sprayed liquid contained (unless otherwise noted) AFxRD-038 powder added to water. AFxRD-038 powder was obtained from AgroFresh Inc. The water used (unless otherwise noted) was tap water. Applications were done in 500 ml spray bottles at rates typical for growth regulators applications in the ornamental industry i.e., 200 ml per square meter. Spraying was done within 5-15 minutes of mixing the formulation. Plants were allowed to dry for 1-4 hours before being challenged with ethylene (2 ppm for about 16 hours at ambient temperatures).
# (§2) Surfactant Silwet™ L-77 (called “surf” below) was sometimes included to evaluate the effect of surfactant on efficacy. Silwet™ L-77 was used in the form of a pure liquid. The amounts shown below as “ml/L” refer to milliliters of pure Silwet™ L-77 per liter of liquid CP composition.
# Campanula = experiment: Spray with 1-MCP solutions without surfactant, ethylene challenge (Example 3)
# Method: as §1
# Bud wilting and flower abscission (%) of Campanula (in pots) sprayed with 1-MCP solutions without a surfactant, and challenged with ethylene. We observed the percent of plants on which one or more buds or one or more flowers underwent wilting or abscission or both.
# Impatiens (light pink) = experiment: Racks of flowering plants sprayed, truck 14 hours, ethylene challenge (Example 8); conditions: 25 mg/L, 200 ml/square meter, scale 0 (poor) to 2 (good)
# Method: as §1
# (§3) Racks of flowers were sprayed with spray liquid containing 25 mg/L at rate of 200 ml/square meter. Racks were then placed into a full enclosed truck (length 7.3 meter) for 14 hours. Plants were then challenged with ethylene and evaluated 3 and 7 days later, using a rating scale from 0 (poor) to 2 (good). […]
# [1] = test system: Callibrachoa “Cherry Blossom”; experiment: as above; conditions: 25 mg/L, 200 ml/square meter, scale 0 (poor) to 2 (good)
# Method: as §1, §3
# Snapdragon (yellow) = experiment: as above; conditions: 25 mg/L, 200 ml/square meter, scale 0 (poor) to 2 (good)
# Method: as §1, §3
# Petunia “Royal Velvet” = experiment: as above; conditions: 25 mg/L, 200 ml/square meter, scale 0 (poor) to 2 (good)
# Method: as §1, §3
# Impatiens (dark pink) = experiment: as above; conditions: 25 mg/L, 200 ml/square meter, scale 0 (poor) to 2 (good)
# Method: as §1, §3
# Dianthus “Ideal White” = experiment: as above; conditions: 25 mg/L, 200 ml/square meter, scale 0 (poor) to 2 (good)
# Method: as §1, §3
# Dianthus (mixed) = experiment: as above; conditions: 25 mg/L, 200 ml/square meter, scale 0 (poor) to 2 (good)
# Method: as §1, §3
# Impatiens (double pink) = experiment: as above; conditions: 25 mg/L, 200 ml/square meter, scale 0 (poor) to 2 (good)
# Method: as §1, §3
# Verbena “babylon Red” = experiment: as above; conditions: 25 mg/L, 200 ml/square meter, scale 0 (poor) to 2 (good)
# Method: as §1, §3
# Regal Geranium ‘Jewel’ = experiment: Spray with 1-MCP solutions with or without surfactant, ethylene challenge (Example 4)
# Method: as §1, §2
# (§4) Flower loss (%) on Regal Geranium cultivars, ‘Camelot’ and ‘Jewel’ (in pots), sprayed with 1-MCP solutions with or without surfactant (Silwet™ L-77) and challenged with ethylene.
# Regal Geranium ‘Camelot’ = experiment: as above
# Method: as §1, §2, §4
# New Guinea Impatiens = experiment: Shelf life after low-concentration spray (Example 9); conditions: EthylBloc powder in distilled water
# Text: (§5) Spray liquid was EthylBloc™ powder (contains 0.14% by weight 1-MCP, plus alpha-cyclodextrin and dextrose, obtained from Floralife Inc.) in distilled water. The shelf lives of sprayed and non-sprayed control plants were observed, with the following results: […]
# Impatiens = experiment: as above; conditions: EthylBloc powder in distilled water
# Text: as §5
# Geranium = experiment: as above; conditions: EthylBloc powder in distilled water
# Text: as §5
# [2] = 1-MCP 5 mg/L, surf. 0 ml/L, Day 1 (Day 1/Day 2 column pair)
# [3] = 1-MCP 5 mg/L, surf. 0 ml/L, Day 1 (Day 1/Day 7 column pair)
# [4] = 1-MCP 5 mg/L, surf. 0 ml/L, Day 2
# [5] = 1-MCP 5 mg/L, surf. 0 ml/L, Day 7
# [6] = 1-MCP 5 mg/L, surf. 2 ml/L, Day 1, phytotoxicity was observed
# [7] = 1-MCP 5 mg/L, surf. 2 ml/L, Day 2, phytotoxicity was observed
# [8] = 1-MCP 10 mg/L, surf. 0 ml/L, Day 1
# [9] = 1-MCP 10 mg/L, surf. 0 ml/L, Day 7
# [10] = 1-MCP 25 mg/L, surf. 0 ml/L, Day 1
# [11] = 1-MCP 25 mg/L, surf. 0 ml/L, Day 7
# [12] = 1-MCP 50 mg/L, surf. 0 ml/L, Day 1 (Day 1/Day 2 column pair), phytotoxicity was observed
# [13] = 1-MCP 50 mg/L, surf. 0 ml/L, Day 1 (Day 1/Day 7 column pair), phytotoxicity was observed
# [14] = 1-MCP 50 mg/L, surf. 0 ml/L, Day 2, phytotoxicity was observed
# [15] = 1-MCP 50 mg/L, surf. 0 ml/L, Day 7, phytotoxicity was observed
# [16] = 1-MCP 50 mg/L, surf. 2 ml/L, Day 1, phytotoxicity was observed
# [17] = 1-MCP 50 mg/L, surf. 2 ml/L, Day 2, phytotoxicity was observed
smiles,measurement,setting,value
"CC1=CC1 [1-MCP, 1-methylcyclopropene]",Wilt and/or Abscission (%),‘Magenta’ Impatiens; 1-MCP 5 mg/L,3%
same,Wilt and/or Abscission (%),‘Magenta’ Impatiens; 1-MCP 10 mg/L,2%
same,Wilt and/or Abscission (%),‘Magenta’ Impatiens; 1-MCP 25 mg/L,5%
same,Wilt and/or Abscission (%),‘Magenta’ Impatiens; 1-MCP 50 mg/L,0%
same,phytotoxicity,‘Magenta’ Impatiens; even at the highest rates with Silwet L-77,No phytotoxicity was observed
same,Bud Wilting and/or Flower Abscission (%),"Campanula; 1-MCP 5 mg/L, Day 1",21%
same,Bud Wilting and/or Flower Abscission (%),"Campanula; 1-MCP 5 mg/L, Day 7",25%
same,Bud Wilting and/or Flower Abscission (%),"Campanula; 1-MCP 10 mg/L, Day 1",45%
same,Bud Wilting and/or Flower Abscission (%),"Campanula; 1-MCP 10 mg/L, Day 7",52%
same,Bud Wilting and/or Flower Abscission (%),"Campanula; 1-MCP 25 mg/L, Day 1",38%
same,Bud Wilting and/or Flower Abscission (%),"Campanula; 1-MCP 25 mg/L, Day 7",59%
same,Bud Wilting and/or Flower Abscission (%),"Campanula; 1-MCP 50 mg/L, Day 1",38%
same,Bud Wilting and/or Flower Abscission (%),"Campanula; 1-MCP 50 mg/L, Day 7",57%
same,"rating, Sprayed",Impatiens (light pink); Day 3,1.00 a
same,"rating, Sprayed",Impatiens (light pink); Day 7,1.00 a
same,"rating, Sprayed",[1]; Day 3,1.00 a
same,"rating, Sprayed",[1]; Day 7,1.00 a
same,"rating, Sprayed",Snapdragon (yellow); Day 3,0.83 a
same,"rating, Sprayed",Snapdragon (yellow); Day 7,0.58 a
same,"rating, Sprayed",Petunia “Royal Velvet”; Day 3,1.00 a
same,"rating, Sprayed",Petunia “Royal Velvet”; Day 7,0.38 a
same,"rating, Sprayed",Impatiens (dark pink); Day 3,1.00 a
same,"rating, Sprayed",Impatiens (dark pink); Day 7,0.83 a
same,"rating, Sprayed",Dianthus “Ideal White”; Day 3,0.92 a
same,"rating, Sprayed",Dianthus “Ideal White”; Day 7,1.00 a
same,"rating, Sprayed",Dianthus (mixed); Day 3,0.58 a
same,"rating, Sprayed",Dianthus (mixed); Day 7,0.25 a
same,"rating, Sprayed",Impatiens (double pink); Day 3,1.00 a
same,"rating, Sprayed",Impatiens (double pink); Day 7,0.58 a
same,"rating, Sprayed",Verbena “babylon Red”; Day 3,0.58 a
same,"rating, Sprayed",Verbena “babylon Red”; Day 7,0.19 a
same,Flower Loss (%),Regal Geranium ‘Jewel’; [2],84^ %
same,Flower Loss (%),Regal Geranium ‘Jewel’; [3],90%
same,Flower Loss (%),Regal Geranium ‘Jewel’; [4],100 ^ %
same,Flower Loss (%),Regal Geranium ‘Jewel’; [5],76%
same,Flower Loss (%),Regal Geranium ‘Jewel’; [6],65^(3) %
same,Flower Loss (%),Regal Geranium ‘Jewel’; [7],100^(3) %
same,Flower Loss (%),Regal Geranium ‘Jewel’; [8],85%
same,Flower Loss (%),Regal Geranium ‘Jewel’; [9],68%
same,Flower Loss (%),Regal Geranium ‘Jewel’; [10],52%
same,Flower Loss (%),Regal Geranium ‘Jewel’; [11],43%
same,Flower Loss (%),Regal Geranium ‘Jewel’; [12],28^(3) %
same,Flower Loss (%),Regal Geranium ‘Jewel’; [13],26^(3) %
same,Flower Loss (%),Regal Geranium ‘Jewel’; [14],82^(3) %
same,Flower Loss (%),Regal Geranium ‘Jewel’; [15],65^(3) %
same,Flower Loss (%),Regal Geranium ‘Jewel’; [16],35^(3) %
same,Flower Loss (%),Regal Geranium ‘Jewel’; [17],81^(3) %
same,Flower Loss (%),Regal Geranium ‘Camelot’; [2],45 ^ %
same,Flower Loss (%),Regal Geranium ‘Camelot’; [3],62%
same,Flower Loss (%),Regal Geranium ‘Camelot’; [4],64^ %
same,Flower Loss (%),Regal Geranium ‘Camelot’; [5],46%
same,Flower Loss (%),Regal Geranium ‘Camelot’; [6],5^(3) %
same,Flower Loss (%),Regal Geranium ‘Camelot’; [7],24^(3) %
same,Flower Loss (%),Regal Geranium ‘Camelot’; [8],20%
same,Flower Loss (%),Regal Geranium ‘Camelot’; [9],0%
same,Flower Loss (%),Regal Geranium ‘Camelot’; [10],28%
same,Flower Loss (%),Regal Geranium ‘Camelot’; [11],27%
same,Flower Loss (%),Regal Geranium ‘Camelot’; [12],0^(3) %
same,Flower Loss (%),Regal Geranium ‘Camelot’; [13],0^(3) %
same,Flower Loss (%),Regal Geranium ‘Camelot’; [14],0^(3) %
same,Flower Loss (%),Regal Geranium ‘Camelot’; [15],48^(3) %
same,Flower Loss (%),Regal Geranium ‘Camelot’; [16],5^(3) %
same,Flower Loss (%),Regal Geranium ‘Camelot’; [17],44^(3) %
same,Shelf Life,New Guinea Impatiens; 1-MCP 0.03 mg/L,4 days
same,Shelf Life,New Guinea Impatiens; 1-MCP 0.32 mg/L,7 days
same,Shelf Life,Impatiens; 1-MCP 0.03 mg/L,3 days
same,Shelf Life,Impatiens; 1-MCP 0.32 mg/L,5 days
same,Shelf Life,Geranium; 1-MCP 0.03 mg/L,3 days
same,Shelf Life,Geranium; 1-MCP 0.32 mg/L,4 days
